For experiment [1], the target named is T1, PA63 heptamer (Bacillus anthracis, UniProt P13423).
In experiment [2] the target is T1, PA63 heptamer. Description: biochemical. The class given is binding.

We go through five substances from patent US20030108556A1 (priority 2001, published 2003).

pIC50: −log10 of the molar value. Entries after “also recorded” stand apart in the source; their conditions may differ. Ends that are not written are not given here.

T1 sequence (P13423 197-764 limits assumed): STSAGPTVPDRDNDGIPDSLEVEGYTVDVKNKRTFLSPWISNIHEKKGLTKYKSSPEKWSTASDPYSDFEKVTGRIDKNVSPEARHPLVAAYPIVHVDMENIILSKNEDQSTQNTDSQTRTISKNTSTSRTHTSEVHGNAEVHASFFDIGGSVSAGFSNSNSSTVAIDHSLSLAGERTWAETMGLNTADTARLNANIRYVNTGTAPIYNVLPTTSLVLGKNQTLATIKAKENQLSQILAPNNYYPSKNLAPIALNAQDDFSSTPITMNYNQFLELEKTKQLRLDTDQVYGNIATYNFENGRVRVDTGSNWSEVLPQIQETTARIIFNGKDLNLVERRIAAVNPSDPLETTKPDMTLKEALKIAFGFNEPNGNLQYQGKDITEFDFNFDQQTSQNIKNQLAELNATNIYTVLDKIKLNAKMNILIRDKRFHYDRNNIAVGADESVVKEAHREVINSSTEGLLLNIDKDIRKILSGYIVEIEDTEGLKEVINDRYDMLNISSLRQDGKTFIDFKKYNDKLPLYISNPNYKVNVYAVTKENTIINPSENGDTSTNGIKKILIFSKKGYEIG

As to CWSSFAWYC, at PA63 heptamer [1], the “properties of phage compared with P1 and P2” value was “showed the same properties as P1 and P2”. Consider FDLPFTMSTPTP [reference compound], for which the “effect on binding of radiolabeled LFN to PA63 on CHO cells” value at PA63 heptamer [2] is “no effect”.

For the substance HTSTYWWLD, the “effect on binding of radiolabeled LFN to PA63 on CHO cells” value at PA63 heptamer [2] is reported as “all but one, HTSTYWWLD, could prevent; also recorded: could not compete”. As a reminder, the pIC50 is the IC50 on a negative log10 scale, so that one unit is a factor of ten. On to HTSTYWWLDGAP, for which the negative logarithm of the IC50 (pIC50) on PA63 heptamer [2] is roughly 3.82. HYTYWWL: the “properties of phage compared with P1 and P2” value at PA63 heptamer [1] was “showed the same properties as P1 and P2”.
